Results from the supplement of paper PMC10307832.

Assays:
Test in all cases: relative viability (nuclei count vs DMSO), 5 days (fraction); higher = more cells survive
[1] = compound: Nc1ccn([C@@H]2O[C@H](CO)[C@@H](O)C2(F)F)c(=O)n1 [Gemcitabine] + NC(=O)Nc1cc(-c2cccc(F)c2)sc1C(=O)N[C@H]1CCCNC1 [AZD7762] (partner 0.2 µM)
Method in brief: (§1)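 Nuclei were stained with Hoechst during a one-step fixation (final 0.05% Triton X-100, 1% formaldehyde, 1 ug/ml Hoechst) carried out 5 days after dosing, then counted on 4× images. The cells, lung cancer lines in 1536-well plates, had been dosed by pin tool the day after seeding with one drug alone or a fixed anchor-drug dose plus five library-drug doses (not always all listed) in √10 steps. Relative viability is the nuclei count in treated wells divided by that in vehicle wells, and each value is the median of duplicate plates.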

[2] = compound: Nc1ccn([C@@H]2O[C@H](CO)[C@@H](O)C2(F)F)c(=O)n1 [Gemcitabine] + CC(C)C[C@H](NC(=O)[C@H](Cc1ccccc1)NC(=O)c1cnccn1)B(O)O [Bortezomib] (partner 0.002 µM)
Method in brief: as §1

[3] = compound: Nc1ccn([C@@H]2O[C@H](CO)[C@@H](O)C2(F)F)c(=O)n1 [Gemcitabine] + Nc1ncn([C@H]2C[C@H](O)[C@@H](CO)O2)c(=O)n1 [Decitabine] (partner 2 µM)
Method in brief: as §1

[4] = compound: Nc1ccn([C@@H]2O[C@H](CO)[C@@H](O)C2(F)F)c(=O)n1 [Gemcitabine] + Cc1cc(Nc2cc(N3CCN(C)CC3)nc(Sc3ccc(NC(=O)C4CC4)cc3)n2)n[nH]1 [Tozasertib] (partner 0.1 µM)
Method in brief: as §1

| Cell Line | relative viability ([1]; first compound 0.001 µM) | relative viability ([1]; first compound 0.003162 µM) | relative viability ([1]; first compound 0.01 µM) | relative viability ([1]; first compound 0.03162 µM) | relative viability ([1]; first compound 0.1 µM) | relative viability ([2]; first compound 0.001 µM) | relative viability ([2]; first compound 0.003162 µM) | relative viability ([2]; first compound 0.01 µM) | relative viability ([2]; first compound 0.03162 µM) | relative viability ([2]; first compound 0.1 µM) | relative viability ([3]; first compound 0.001 µM) | relative viability ([3]; first compound 0.003162 µM) | relative viability ([3]; first compound 0.01 µM) | relative viability ([3]; first compound 0.03162 µM) | relative viability ([3]; first compound 0.1 µM) | relative viability ([4]; first compound 0.001 µM) | relative viability ([4]; first compound 0.003162 µM) | relative viability ([4]; first compound 0.01 µM) | relative viability ([4]; first compound 0.03162 µM) | relative viability ([4]; first compound 0.1 µM) |
| --- | --- | --- | --- | --- | --- | --- | --- | --- | --- | --- | --- | --- | --- | --- | --- | --- | --- | --- | --- | --- |
| NCI-H1792 | 0.166 | 0.0355 | 0.0254 | 0.0229 | 0.033 | 1.08 | 0.925 | 0.308 | 0.133 | 0.093 | 0.406 | 0.291 | 0.0943 | 0.0857 | 0.0713 |  |  |  |  |  |
| NCI-H1793 | 0.778 | 0.211 | 0.0841 | 0.161 | 0.0995 |  |  |  |  |  | 0.512 | 0.433 | 0.271 | 0.156 | 0.162 | 0.421 | 0.507 | 0.202 | 0.133 | 0.12 |
| NCI-H1563 |  |  |  |  |  | 0.93 | 0.965 | 0.851 | 0.608 | 0.537 |  |  |  |  |  |  |  |  |  |  |
| NCI-H1395 | 0.408 | 0.37 | 0.352 | 0.307 | 0.336 |  |  |  |  |  | 0.736 | 0.592 | 0.47 | 0.422 | 0.365 | 0.676 | 0.674 | 0.429 | 0.367 | 0.334 |
| NCI-H1299 |  |  |  |  |  | 1.03 | 1.07 | 1 | 0.995 | 1.07 |  |  |  |  |  |  |  |  |  |  |
| NCI-H2228 |  |  |  |  |  | 0.98 | 1.06 | 0.281 | 0.198 | 0.126 |  |  |  |  |  | 0.278 | 0.209 | 0.154 | 0.108 | 0.115 |
| NCI-H2170 | 0.889 | 0.771 | 0.128 | 0.106 | 0.108 |  |  |  |  |  | 0.457 | 0.455 | 0.349 | 0.201 | 0.126 | 0.824 | 0.735 | 0.469 | 0.154 | 0.134 |
| NCI-H2342 | 0.473 | 0.382 | 0.333 | 0.235 | 0.374 |  |  |  |  |  | 0.694 | 0.65 | 0.532 | 0.537 | 0.337 | 0.456 | 0.451 | 0.427 | 0.279 | 0.268 |
| A549 |  |  |  |  |  |  |  |  |  |  | 0.292 | 0.274 | 0.0559 | 0.0266 | 0.0227 |  |  |  |  |  |
| NCI-H358 | 0.201 | 0.245 | 0.16 | 0.23 | 0.126 |  |  |  |  |  | 0.188 | 0.171 | 0.151 | 0.102 | 0.105 | 0.086 | 0.081 | 0.0836 | 0.081 | 0.0743 |
| CAL-12T | 0.624 | 0.548 | 0.227 | 0.206 | 0.23 | 1.01 | 0.822 | 0.521 | 0.267 | 0.254 |  |  |  |  |  | 0.292 | 0.35 | 0.29 | 0.22 | 0.129 |
| COR-L23 |  |  |  |  |  | 1.04 | 0.949 | 0.66 | 0.114 | 0.101 | 0.423 | 0.463 | 0.443 | 0.217 | 0.146 | 0.223 | 0.19 | 0.111 | 0.0883 | 0.0724 |
| IA-LM |  |  |  |  |  | 0.882 | 0.805 | 0.651 | 0.0803 | 0.0498 |  |  |  |  |  |  |  |  |  |  |
| NCI-H1650 |  |  |  |  |  | 0.189 | 0.18 | 0.175 | 0.147 | 0.133 | 0.467 | 0.369 | 0.239 | 0.222 | 0.155 | 0.507 | 0.348 | 0.273 | 0.119 | 0.113 |
| Calu-6 |  |  |  |  |  | 1.04 | 0.57 | 0.26 | 0.167 | 0.159 |  |  |  |  |  |  |  |  |  |  |
